# Results taken from patent US11384067B2, “Pyrazole n-linked carbamoyl cyclohexyl acids as LPA antagonists” (BRISTOL-MYERS SQUIBB COMPANY, priority 2017, dated 2022).
# Biological target: T1, human LPA1 (Homo sapiens, UniProt Q92633)
# T1 construct: expressed in transfected cells; host or cells: Chinese hamster ovary (CHO) cells
# Assay: LPA1 functional antagonist assay (LPA-induced calcium flux)
# Type: cell-based
# Conditions: CHO cells overexpressing human LPA1, 10 nM LPA, read-out: hLPA1 IC50
# Experimental: The effectiveness of compounds of the present invention as LPA1 inhibitors can be determined in an LPA1 functional antagonist assay as follows:
# The cells were then equilibrated to room temperature for 30 minutes before the assay. […] IC50 values were determined by fitting data to a 4-parameter logistic equation (GraphPad Prism, San Diego Calif.).
# T1 sequence (Q92633 whole entry): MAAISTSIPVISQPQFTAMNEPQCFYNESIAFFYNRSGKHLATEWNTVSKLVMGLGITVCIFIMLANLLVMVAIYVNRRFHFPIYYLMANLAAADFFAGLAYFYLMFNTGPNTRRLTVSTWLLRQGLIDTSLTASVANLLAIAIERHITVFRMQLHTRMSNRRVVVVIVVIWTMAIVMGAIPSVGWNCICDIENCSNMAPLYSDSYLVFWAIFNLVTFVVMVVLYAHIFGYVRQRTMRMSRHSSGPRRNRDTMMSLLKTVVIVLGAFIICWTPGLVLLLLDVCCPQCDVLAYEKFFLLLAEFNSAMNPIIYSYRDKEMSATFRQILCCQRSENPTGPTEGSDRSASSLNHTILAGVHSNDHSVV
row,SMILES,IC50 [nM]
1,"CCCCOC(=O)NCc1c(-c2ccc(O[C@H]3CCC[C@H](C(=O)O)C3)c(C)n2)cnn1C [Example 1, (1S,3S)-3-((6-(5-(((Butoxycarbonyl)amino)methyl)-1-methyl-1H-pyrazol-4-yl)-2-methylpyridin-3-yl)oxy)cyclohexanecarboxylic Acid]",28
2,"CCCCOC(=O)N(C)Cc1c(-c2ccc(O[C@H]3CCC[C@H](C(=O)O)C3)c(C)n2)cnn1C [Example 2, (1S,3S)-3-((6-(5-(((Butoxycarbonyl)(methyl)amino)methyl)-1-methyl-1H-pyrazol-4-yl)-2-methylpyridin-3-yl)oxy)cyclohexanecarboxylic Acid]",49
3,"Cc1nc(-c2cnn(C)c2CNC(=O)OCc2cccc(F)c2)ccc1O[C@H]1CCC[C@H](C(=O)O)C1 [Example 4, (1S,3S)-3-((6-(5-(((((3-fluorobenzyl)oxy)carbonyl)amino)methyl)-1-methyl-1H-pyrazol-4-yl)-2-methyl-pyridin-3-yl)oxy)cyclohexane-1-carboxylic acid]",12
4,"Cc1nc(-c2cnn(C)c2CNC(=O)O[C@H](C)c2ccccc2)ccc1O[C@H]1CCC[C@H](C(=O)O)C1 [Example 5, (1S,3S)-3-((2-methyl-6-(1-methyl-5-(((((R)-1-phenylethoxy)carbonyl)amino)methyl)-1H-pyrazol-4-yl)pyridin-3-yl)oxy)cyclohexane-1-carboxylic acid]",11
5,"Cc1nc(-c2cnn(C)c2CNC(=O)OCc2cc(F)cc(F)c2)ccc1O[C@H]1CCC[C@H](C(=O)O)C1 [Example 6, (1S,3S)-3-((6-(5-(((((3,5-difluoro-benzyl)oxy)carbonyl)amino)methyl)-1-methyl-1H-pyrazol-4-yl)-2-methyl-pyridin-3-yl)oxy)cyclohexane-1-carboxylic acid]",7
6,"Cc1cccc(COC(=O)NCc2c(-c3ccc(O[C@H]4CCC[C@H](C(=O)O)C4)cn3)cnn2C)c1 [Example 7, (1S,3S)-3-((6-(1-methyl-5-(((((3-methylbenzyl)oxy)carbonyl)amino)methyl)-1H-pyrazol-4-yl)pyridin-3-yl)oxy)cyclohexane-1-carboxylic acid]",280
7,"Cn1ncc(-c2ccc(O[C@H]3CCC[C@H](C(=O)O)C3)cn2)c1CNC(=O)OCc1cc(F)cc(F)c1 [Example 8, (1S,3S)-3-((6-(5-(((((3,5-difluoro-benzyl)oxy)carbonyl)amino)methyl)-1-methyl-1H-pyrazol-4-yl)pyridin-3-yl)oxy)cyclohexane-1-carboxylic acid]",111
8,"Cn1ncc(-c2ccc(O[C@H]3CCC[C@H](C(=O)O)C3)cn2)c1CNC(=O)OCc1cc(F)ccc1F [Example 9, (1S,3S)-3-((6-(5-(((((2,5-difluoro-benzyl)oxy)carbonyl)amino)methyl)-1-methyl-1H-pyrazol-4-yl)pyridin-3-yl)oxy)cyclohexane-1-carboxylic acid]",71
9,"CN(Cc1c(-c2ccc(O[C@H]3CCC[C@H](C(=O)O)C3)cn2)cnn1C)C(=O)OCc1cc(F)ccc1F [Example 10, (1S,3S)-3-((6-(5-(((((2,5-difluoro-benzyl)oxy)carbonyl)(methyl)amino)methyl)-1-methyl-1H-pyrazol-4-yl)pyridin-3-yl)oxy)cyclohexane-1-carboxylic acid]",1660
10,"CCCCCOC(=O)NCc1c(-c2ccc(O[C@H]3CCC[C@H](C(=O)O)C3)cn2)cnn1C [Example 12, (1S,3S)-3-((6-(1-methyl-5-((((pentyl-oxy)carbonyl)amino)methyl)-1H-pyrazol-4-yl)pyridin-3-yl)oxy)cyclohexane-1-carboxylic acid]",16
11,"CCCCCCOC(=O)NCc1c(-c2ccc(O[C@H]3CCC[C@H](C(=O)O)C3)cn2)cnn1C [Example 13, (1S,3S)-3-((6-(5-((((hexyloxy)carbonyl)amino)methyl)-1-methyl-1H-pyrazol-4-yl)pyridin-3-yl)oxy)cyclohexane-1-carboxylic acid]",834
12,"Cn1ncc(-c2ccc(O[C@H]3CCC[C@H](C(=O)O)C3)cn2)c1CNC(=O)OCC(C)(C)C [Example 14, (1S,3S)-3-((6-(1-methyl-5-((((neo-pentyloxy)carbonyl)amino)methyl)-1H-pyrazol-4-yl)pyridin-3-yl)oxy)cyclohexane-carboxylic acid]",207
13,"Cc1cccc(COC(=O)NCc2c(-c3ccc(O[C@H]4CCC[C@H](C(=O)O)C4)c(C)n3)cnn2C)c1 [Example 15, (1S,3S)-3-((2-methyl-6-(1-methyl-5-(((((3-methylbenzyl)oxy)carbonyl)amino)methyl)-1H-pyrazol-4-yl)pyridin-3-yl)oxy)cyclohexane-1-carboxylic acid]",2
14,"C[C@@H](OC(=O)NCc1c(-c2ccc(O[C@H]3CCC[C@H](C(=O)O)C3)cn2)cnn1C)c1ccccc1 [Example 16, (1S,3S)-3-((6-(1-methyl-5-(((((R)-1-phenylethoxy)carbonyl)amino)methyl)-1H-pyrazol-4-yl)pyridin-3-yl)oxy)cyclohexane-1-carboxylic acid]",23
15,"CC(C)COC(=O)NCc1c(-c2ccc(O[C@H]3CCC[C@H](C(=O)O)C3)cn2)cnn1C [Example 17, (1S,3S)-3-((6-(5-(((isobutoxy-carbonyl)amino)methyl)-1-methyl-1H-pyrazol-4-yl)pyridin-3-yl)oxy)cyclohexane-1-carboxylic acid]",1640
16,"CCCCOC(=O)NCc1c(-c2ccc(O[C@H]3CCC[C@H](C(=O)O)C3)cn2)cnn1C [Example 18, (1S,3S)-3-((6-(5-(((butoxycarbonyl)amino)methyl)-1-methyl-1H-pyrazol-4-yl)pyridin-3-yl)oxy)cyclohexane-1-carboxylic acid]",325
17,"CCCCCOC(=O)NCc1c(-c2ccc(O[C@H]3CCC[C@H](C(=O)O)C3)c(C)n2)cnn1C [Example 19, (1S,3S)-3-((2-methyl-6-(1-methyl-5-((((pentyloxy)carbonyl)amino)methyl)-1H-pyrazol-4-yl)pyridin-3-yl)oxy)cyclohexane-1-carboxylic acid]",4
18,"CCCOC(=O)NCc1c(-c2ccc(O[C@H]3CCC[C@H](C(=O)O)C3)c(C)n2)cnn1C [Example 20, (1S,3S)-3-((2-methyl-6-(1-methyl-5-(((propoxycarbonyl)amino)methyl)-1H-pyrazol-4-yl)pyridin-3-yl)oxy)cyclohexane-1-carboxylic acid]",275
19,"Cc1cccc(COC(=O)NCc2c(-c3ccc(O[C@H]4CCC[C@H](C(=O)O)C4)cn3)cnn2C)c1 [Example 21, (1S,3S)-3-((6-(1-methyl-5-(((((3-methylbenzyl)oxy)carbonyl)amino)methyl)-1H-pyrazol-4-yl)pyridin-3-yl)oxy)cyclohexane-1-carboxylic acid]",182
20,"Cn1ncc(-c2ccc(O[C@H]3CCC[C@H](C(=O)O)C3)cn2)c1CNC(=O)OCCc1ccccc1 [Example 22, (1S,3S)-3-((6-(1-methyl-5-(((phen-ethoxycarbonyl)amino)methyl)-1H-pyrazol-4-yl)pyridin-3-yl)oxy)cyclohexane-1-carboxylic acid]",355
21,"CCCCOC(=O)N(C)Cc1c(-c2ccc(O[C@H]3CCC[C@H](C(=O)O)C3)cn2)cnn1C [Example 23, (1S,3S)-3-((6-(5-(((butoxycarbonyl)(methyl)amino)methyl)-1-methyl-1H-pyrazol-4-yl)pyridin-3-yl)oxy)cyclohexane-1-carboxylic acid]",243
22,"CN(Cc1c(-c2ccc(O[C@H]3CCC[C@H](C(=O)O)C3)cn2)cnn1C)C(=O)OCc1ccccc1 [Example 24, (1S,3S)-3-((6-(5-((((benzyloxy)carbonyl)(methyl)amino)methyl)-1-methyl-1H-pyrazol-4-yl)pyridin-3-yl)oxy)cyclohexane-1-carboxylic acid]",204
23,"Cn1ncc(-c2ccc(O[C@H]3CCC[C@H](C(=O)O)C3)cn2)c1CNC(=O)OCc1ccccc1 [Example 25, (1S,3S)-3-((6-(5-((((benzyloxy)carbonyl)amino)methyl)-1-methyl-1H-pyrazol-4-yl)pyridin-3-yl)oxy)cyclohexane-1-carboxylic acid]",20
24,CCCCCCOC(=O)NCc1c(-c2ccc(O[C@H]3CCC[C@H](C(=O)O)C3)c(C)n2)cnn1C [Example 26],14
25,Cc1nc(-c2cnn(C)c2CNC(=O)OCC(C)(C)C)ccc1O[C@H]1CCC[C@H](C(=O)O)C1 [Example 27],22
26,"Cc1nc(-c2cnn(C)c2CNC(=O)OCC(C)C)ccc1O[C@H]1CCC[C@H](C(=O)O)C1 [Example 28, (1S,3S)-3-((6-(5-(((isobutoxy-carbonyl)amino)methyl)-1-methyl-1H-pyrazol-4-yl)-2-methylpyridin-3-yl)oxy)cyclohexane-1-carboxylic acid]",29
27,"Cc1nc(-c2cnn(C)c2CNC(=O)OCC(C)C)cnc1O[C@H]1CCC[C@H](C(=O)O)C1 [Example 29, (1S,3S)-3-((5-(5-(((isobutoxy-carbonyl)amino)methyl)-1-methyl-1H-pyrazol-4-yl)-3-methylpyrazin-2-yl)oxy)cyclohexane-1-carboxylic acid]",1200
28,"CCCCOC(=O)NCc1c(-c2cnc(O[C@H]3CCC[C@H](C(=O)O)C3)c(C)n2)cnn1C [Example 30, (1S,3S)-3-((5-(5-(((butoxycarbonyl)amino)methyl)-1-methyl-1H-pyrazol-4-yl)-3-methylpyrazin-2-yl)oxy)cyclohexane-1-carboxylic acid]",283
29,"Cc1nc(-c2cnn(C)c2CNC(=O)OCc2ccccc2)cnc1O[C@H]1CCC[C@H](C(=O)O)C1 [Example 31, (1S,3S)-3-((5-(5-((((benzyloxy)carbonyl)amino)methyl)-1-methyl-1H-pyrazol-4-yl)-3-methylpyrazin-2-yl)oxy)cyclohexane-1-carboxylic acid]",29
30,"Cc1nc(-c2cnn(C)c2CN(C)C(=O)OCc2ccccc2)ccc1O[C@H]1CCC[C@H](C(=O)O)C1 [Example 32, (1S,3S)-3-((6-(5-((((benzyloxy)carbonyl)(methyl)amino)methyl)-1-methyl-1H-pyrazol-4-yl)-2-methyl-pyridin-3-yl)oxy)cyclohexane-1-carboxylic acid]",211
